What was measured:
Assay type in all cases: protein-complex assay
[1] = biological target: T1, cAMP-dependent protein kinase A (Bos taurus, UniProt P00515+P00517+P05131+P31322); experiment: Inhibitory constant for Protein Kinase A
[2] = biological target: T1, cAMP-dependent protein kinase A; experiment: Inhibition of PKA at 100 uM ATP
[3] = biological target: T1, cAMP-dependent protein kinase A; experiment: Inhibition of PKA at 2 mM ATP

Compound	Ki [1] [µM]	IC50 [2] [µM]	IC50 [3] [µM]
N=C(N)NCCn1cnc2c(N)ncnc21	38	420	790
N=C(N)NCCOCCOCCn1cnc2c(N)ncnc21	150	1700	6200
N=C(N)NCCOCCn1cnc2c(N)ncnc21	29	320	760
Nc1ncnc2c1ncn2[C@@H]1O[C@H](CO)[C@@H](O)[C@H]1O [ADENOSINE]	15	160	1100
